According to patent US20250230193A1, “CYCLIC COMPOUND HAVING SELECTIVE KRAS INHIBITORY EFFECT ON HRAS AND NRAS” (CHUGAI SEIYAKU KABUSHIKI KAISHA, priority 2022, published 2025):
*1 amine or outer side, *2 acyl side, *3 side chain or, on linkers, in order; H or OH if unused. Where a SMILES comes first, the peptide text is derived from it. Bridges are numbered along the chain shown (N, C = ends). [ ]: non-standard residue; d: D form. The star is where a group is joined. hPhe(3-Cl-4-CF3) = N[C@@H](CCc1ccc(C(F)(F)F)c(Cl)c1)C(=O)O; X35 = Cc1ccc(C[C@@H](C(=O)[*:2])N(CCC(C)(C)C)[*:1])cc1; X41 = Cc1ccc(C[C@@H](C(=O)[*:2])N(CCC(F)(F)F)[*:1])cc1; NPrPhe(4-CF3) = CCCN[C@@H](Cc1ccc(C(F)(F)F)cc1)C(=O)O; X27 = Cc1ccc(C[C@@H](C(=O)[*:2])N(CC2CCCCC2)[*:1])cc1; X29 = Cc1ccc(C[C@@H](C(=O)[*:2])N(CC2CCCC2)[*:1])cc1; NMePhe(4-CF3) = CN[C@@H](Cc1ccc(C(F)(F)F)cc1)C(=O)O; X34 = Cc1ccc(C[C@@H](C(=O)[*:2])N(CCC(C)C)[*:1])cc1; X26 = COCCCN([C@@H](Cc1ccc(C)cc1)C(=O)[*:2])[*:1]; X48 = C=CCCN([C@@H](Cc1ccc(C)cc1)C(=O)[*:2])[*:1]; X12 = COCCN([C@@H](Cc1ccc(C)cc1)C(=O)[*:2])[*:1]; NPrPhe(4-Me) = CCCN[C@@H](Cc1ccc(C)cc1)C(=O)O; NMeGly(cPent) = CN[C@H](C(=O)O)C1CCCC1; NMeD = CN[C@@H](CC(=O)O)C(=O)O; NMeL = CN[C@@H](CC(C)C)C(=O)O; Pip = O=C(O)[C@@H]1CCCCN1; Morpholide = C1CN(*)CCO1; NMeA = CN[C@@H](C)C(=O)O; Ac5c = NC1(C(=O)O)CCCC1; Aze = O=C(O)[C@@H]1CCN1; NEtG = CCNCC(=O)O; Sar = CNCC(=O)O

What was measured:
[1] = target: GDP-bound HRAS wild-type protein (Homo sapiens, UniProt P01112); assay: Binding to HRAS by surface plasmon resonance (SPR), Single Cycle Kinetics; conditions: KD ratio HRAS/KRAS, SPR
Chain of GDP-bound HRAS wild-type protein (P01112 whole entry): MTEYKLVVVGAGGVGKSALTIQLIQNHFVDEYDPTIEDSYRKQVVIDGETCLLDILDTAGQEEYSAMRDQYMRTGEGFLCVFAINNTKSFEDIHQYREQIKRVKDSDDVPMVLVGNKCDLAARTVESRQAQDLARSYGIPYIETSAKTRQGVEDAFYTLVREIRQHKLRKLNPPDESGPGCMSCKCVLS

[2] = target: GDP-bound NRAS wild-type protein (Homo sapiens, UniProt P01111); assay: Binding to NRAS by surface plasmon resonance (SPR), Single Cycle Kinetics; conditions: KD ratio NRAS/KRAS, SPR
Chain of GDP-bound NRAS wild-type protein (P01111 whole entry): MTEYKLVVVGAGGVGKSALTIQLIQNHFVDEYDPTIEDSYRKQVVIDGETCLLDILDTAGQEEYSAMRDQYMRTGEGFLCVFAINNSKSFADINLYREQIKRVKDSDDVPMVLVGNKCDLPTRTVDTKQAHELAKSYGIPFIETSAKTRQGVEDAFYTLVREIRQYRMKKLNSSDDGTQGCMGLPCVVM

| Structure (SMILES) | HRAS/KRAS (ratio of KD for GDP-bound HRAS wild-type to KD for KRAS) [1] | NRAS/KRAS (ratio of KD for GDP-bound NRAS wild-type to KD for KRAS) [2] |
| --- | --- | --- |
| CCCN1C(=O)CN(CC)C(=O)CN(C)C(=O)[C@H]([C@@H](C)CC)NC(=O)[C@H](CC(C)C)N(C)C(=O)C[C@@H](C(=O)N2CCOCC2)N(C)C(=O)[C@H](C2CCCC2)N(C)C(=O)C2(CCCC2)NC(=O)[C@@H]2CCCN2C(=O)[C@H](CCc2ccc(C(F)(F)F)c(Cl)c2)NC(=O)CN(CC)C(=O)[C@@H]1Cc1ccc(C)cc1 [PP0069] ([NMeL]I[Sar][NEtG][NPrPhe(4-Me)][NEtG][hPhe(3-Cl-4-CF3)]P[Ac5c][NMeGly(cPent)][NMeD]-Morpholide; lactam N-11) | C (A compound having a KD ratio of 0.1 or more and less than 3 is denoted as C) | C (A compound having a KD ratio of 0.1 or more and less than 3 is denoted as C) |
| CCCN1C(=O)[C@@H]2CCN2C(=O)[C@@H]2CCCCN2C(=O)[C@H]([C@@H](C)CC)NC(=O)[C@H](CC(C)C)N(C)C(=O)C[C@@H](C(=O)N2CCOCC2)N(C)C(=O)[C@H](C2CCCC2)N(C)C(=O)C2(CCCC2)NC(=O)[C@@H]2CCCN2C(=O)[C@H](CCc2ccc(C(F)(F)F)c(Cl)c2)NC(=O)CN(C)C(=O)[C@@H]1Cc1ccc(C)cc1 [PP0070] ([NMeL]I[Pip][Aze][NPrPhe(4-Me)][Sar][hPhe(3-Cl-4-CF3)]P[Ac5c][NMeGly(cPent)][NMeD]-Morpholide; lactam N-11) | B (a compound having 3 or more and less than 10 is denoted as B) | C (A compound having a KD ratio of 0.1 or more and less than 3 is denoted as C) |
| CC[C@H](C)[C@@H]1NC(=O)[C@H](CC(C)C)N(C)C(=O)C[C@@H](C(=O)N2CCOCC2)N(C)C(=O)[C@H](C2CCCC2)N(C)C(=O)C2(CCCC2)NC(=O)[C@@H]2CCCN2C(=O)[C@H](CCc2ccc(C(F)(F)F)c(Cl)c2)NC(=O)CN(C)C(=O)[C@H](Cc2ccc(C(F)(F)F)cc2)N(C)C(=O)CN(C)C(=O)CN(C)C1=O [PP0076] ([NMeL]I[Sar][Sar][NMePhe(4-CF3)][Sar][hPhe(3-Cl-4-CF3)]P[Ac5c][NMeGly(cPent)][NMeD]-Morpholide; lactam N-11) | C (A compound having a KD ratio of 0.1 or more and less than 3 is denoted as C) | C (A compound having a KD ratio of 0.1 or more and less than 3 is denoted as C) |
| CCCN1C(=O)[C@@H]2CCN2C(=O)[C@@H]2CCCCN2C(=O)[C@H]([C@@H](C)CC)NC(=O)[C@H](CC(C)C)N(C)C(=O)C[C@@H](C(=O)N2CCOCC2)N(C)C(=O)[C@H](C2CCCC2)N(C)C(=O)C2(CCCC2)NC(=O)[C@@H]2CCCN2C(=O)[C@H](CCc2ccc(C(F)(F)F)c(Cl)c2)NC(=O)CN(C)C(=O)[C@@H]1Cc1ccc(C(F)(F)F)cc1 [PP0077] ([NMeL]I[Pip][Aze][NPrPhe(4-CF3)][Sar][hPhe(3-Cl-4-CF3)]P[Ac5c][NMeGly(cPent)][NMeD]-Morpholide; lactam N-11) | B (a compound having 3 or more and less than 10 is denoted as B) | C (A compound having a KD ratio of 0.1 or more and less than 3 is denoted as C) |
| CCCN1C(=O)[C@@H]2CCN2C(=O)[C@H](C)NC(=O)[C@H]([C@@H](C)CC)NC(=O)[C@H](CC(C)C)N(C)C(=O)C[C@@H](C(=O)N2CCOCC2)N(C)C(=O)[C@H](C2CCCC2)N(C)C(=O)C2(CCCC2)NC(=O)[C@@H]2CCCN2C(=O)[C@H](CCc2ccc(C(F)(F)F)c(Cl)c2)NC(=O)CN(C)C(=O)[C@@H]1Cc1ccc(C(F)(F)F)cc1 [PP0078] ([NMeL]IA[Aze][NPrPhe(4-CF3)][Sar][hPhe(3-Cl-4-CF3)]P[Ac5c][NMeGly(cPent)][NMeD]-Morpholide; lactam N-11) | B (a compound having 3 or more and less than 10 is denoted as B) | C (A compound having a KD ratio of 0.1 or more and less than 3 is denoted as C) |
| CC[C@H](C)[C@@H]1NC(=O)[C@H](CC(C)C)N(C)C(=O)C[C@@H](C(=O)N2CCOCC2)N(C)C(=O)[C@H](C2CCCC2)N(C)C(=O)C2(CCCC2)NC(=O)[C@@H]2CCCN2C(=O)[C@H](CCc2ccc(C(F)(F)F)c(Cl)c2)NC(=O)CN(C)C(=O)[C@H](Cc2ccc(C)cc2)N(CC2CCCC2)C(=O)[C@@H]2CCN2C(=O)[C@H](C)N(C)C1=O [PP0084] ([NMeL]I[NMeA][Aze][X29][Sar][hPhe(3-Cl-4-CF3)]P[Ac5c][NMeGly(cPent)][NMeD]-Morpholide; lactam N-11) | B (a compound having 3 or more and less than 10 is denoted as B) | C (A compound having a KD ratio of 0.1 or more and less than 3 is denoted as C) |
| CC[C@H](C)[C@@H]1NC(=O)[C@H](CC(C)C)N(C)C(=O)C[C@@H](C(=O)N2CCOCC2)N(C)C(=O)[C@H](C2CCCC2)N(C)C(=O)C2(CCCC2)NC(=O)[C@@H]2CCCN2C(=O)[C@H](CCc2ccc(C(F)(F)F)c(Cl)c2)NC(=O)CN(C)C(=O)[C@H](Cc2ccc(C)cc2)N(CC2CCCCC2)C(=O)[C@@H]2CCN2C(=O)[C@H](C)N(C)C1=O [PP0085] ([NMeL]I[NMeA][Aze][X27][Sar][hPhe(3-Cl-4-CF3)]P[Ac5c][NMeGly(cPent)][NMeD]-Morpholide; lactam N-11) | C (A compound having a KD ratio of 0.1 or more and less than 3 is denoted as C) | C (A compound having a KD ratio of 0.1 or more and less than 3 is denoted as C) |
| CC[C@H](C)[C@@H]1NC(=O)[C@H](CC(C)C)N(C)C(=O)C[C@@H](C(=O)N2CCOCC2)N(C)C(=O)[C@H](C2CCCC2)N(C)C(=O)C2(CCCC2)NC(=O)[C@@H]2CCCN2C(=O)[C@H](CCc2ccc(C(F)(F)F)c(Cl)c2)NC(=O)CN(C)C(=O)[C@H](Cc2ccc(C)cc2)N(CCC(C)C)C(=O)[C@@H]2CCN2C(=O)[C@H](C)N(C)C1=O [PP0086] ([NMeL]I[NMeA][Aze][X34][Sar][hPhe(3-Cl-4-CF3)]P[Ac5c][NMeGly(cPent)][NMeD]-Morpholide; lactam N-11) | B (a compound having 3 or more and less than 10 is denoted as B) | C (A compound having a KD ratio of 0.1 or more and less than 3 is denoted as C) |
| CC[C@H](C)[C@@H]1NC(=O)[C@H](CC(C)C)N(C)C(=O)C[C@@H](C(=O)N2CCOCC2)N(C)C(=O)[C@H](C2CCCC2)N(C)C(=O)C2(CCCC2)NC(=O)[C@@H]2CCCN2C(=O)[C@H](CCc2ccc(C(F)(F)F)c(Cl)c2)NC(=O)CN(C)C(=O)[C@H](Cc2ccc(C)cc2)N(CCC(C)(C)C)C(=O)[C@@H]2CCN2C(=O)[C@H](C)N(C)C1=O [PP0087] ([NMeL]I[NMeA][Aze][X35][Sar][hPhe(3-Cl-4-CF3)]P[Ac5c][NMeGly(cPent)][NMeD]-Morpholide; lactam N-11) | C (A compound having a KD ratio of 0.1 or more and less than 3 is denoted as C) | C (A compound having a KD ratio of 0.1 or more and less than 3 is denoted as C) |
| C=CCCN1C(=O)[C@@H]2CCN2C(=O)[C@H](C)N(C)C(=O)[C@H]([C@@H](C)CC)NC(=O)[C@H](CC(C)C)N(C)C(=O)C[C@@H](C(=O)N2CCOCC2)N(C)C(=O)[C@H](C2CCCC2)N(C)C(=O)C2(CCCC2)NC(=O)[C@@H]2CCCN2C(=O)[C@H](CCc2ccc(C(F)(F)F)c(Cl)c2)NC(=O)CN(C)C(=O)[C@@H]1Cc1ccc(C)cc1 [PP0089] ([NMeL]I[NMeA][Aze][X48][Sar][hPhe(3-Cl-4-CF3)]P[Ac5c][NMeGly(cPent)][NMeD]-Morpholide; lactam N-11) | B (a compound having 3 or more and less than 10 is denoted as B) | C (A compound having a KD ratio of 0.1 or more and less than 3 is denoted as C) |
| CC[C@H](C)[C@@H]1NC(=O)[C@H](CC(C)C)N(C)C(=O)C[C@@H](C(=O)N2CCOCC2)N(C)C(=O)[C@H](C2CCCC2)N(C)C(=O)C2(CCCC2)NC(=O)[C@@H]2CCCN2C(=O)[C@H](CCc2ccc(C(F)(F)F)c(Cl)c2)NC(=O)CN(C)C(=O)[C@H](Cc2ccc(C)cc2)N(CCC(F)(F)F)C(=O)[C@@H]2CCN2C(=O)[C@H](C)N(C)C1=O [PP0091] ([NMeL]I[NMeA][Aze][X41][Sar][hPhe(3-Cl-4-CF3)]P[Ac5c][NMeGly(cPent)][NMeD]-Morpholide; lactam N-11) | B (a compound having 3 or more and less than 10 is denoted as B) | C (A compound having a KD ratio of 0.1 or more and less than 3 is denoted as C) |
| CC[C@H](C)[C@@H]1NC(=O)[C@H](CC(C)C)N(C)C(=O)C[C@@H](C(=O)N2CCOCC2)N(C)C(=O)[C@H](C2CCCC2)N(C)C(=O)C2(CCCC2)NC(=O)[C@@H]2CCCN2C(=O)[C@H](CCc2ccc(C(F)(F)F)c(Cl)c2)NC(=O)CN(C)C(=O)[C@H](Cc2ccc(C)cc2)N(CCOC)C(=O)[C@@H]2CCN2C(=O)[C@H](C)N(C)C1=O [PP0092] ([NMeL]I[NMeA][Aze][X12][Sar][hPhe(3-Cl-4-CF3)]P[Ac5c][NMeGly(cPent)][NMeD]-Morpholide; lactam N-11) | C (A compound having a KD ratio of 0.1 or more and less than 3 is denoted as C) | C (A compound having a KD ratio of 0.1 or more and less than 3 is denoted as C) |
| CC[C@H](C)[C@@H]1NC(=O)[C@H](CC(C)C)N(C)C(=O)C[C@@H](C(=O)N2CCOCC2)N(C)C(=O)[C@H](C2CCCC2)N(C)C(=O)C2(CCCC2)NC(=O)[C@@H]2CCCN2C(=O)[C@H](CCc2ccc(C(F)(F)F)c(Cl)c2)NC(=O)CN(C)C(=O)[C@H](Cc2ccc(C)cc2)N(CCCOC)C(=O)[C@@H]2CCN2C(=O)[C@H](C)N(C)C1=O [PP0093] ([NMeL]I[NMeA][Aze][X26][Sar][hPhe(3-Cl-4-CF3)]P[Ac5c][NMeGly(cPent)][NMeD]-Morpholide; lactam N-11) | B (a compound having 3 or more and less than 10 is denoted as B) | C (A compound having a KD ratio of 0.1 or more and less than 3 is denoted as C) |
